# Data: patent US11987542B2, “Co-crystal of sorafenib derivatives and process for preparation thereof” (EicOsis, LLC, priority 2018, dated 2024)
# How the values were obtained:
# Format in all cases: biochemical
# [1] = biological target: T1, Rat sEH (Rattus norvegicus, UniProt P80299); experiment: sEH inhibition, fluorescent assay
# T1 sequence (P80299 1-554): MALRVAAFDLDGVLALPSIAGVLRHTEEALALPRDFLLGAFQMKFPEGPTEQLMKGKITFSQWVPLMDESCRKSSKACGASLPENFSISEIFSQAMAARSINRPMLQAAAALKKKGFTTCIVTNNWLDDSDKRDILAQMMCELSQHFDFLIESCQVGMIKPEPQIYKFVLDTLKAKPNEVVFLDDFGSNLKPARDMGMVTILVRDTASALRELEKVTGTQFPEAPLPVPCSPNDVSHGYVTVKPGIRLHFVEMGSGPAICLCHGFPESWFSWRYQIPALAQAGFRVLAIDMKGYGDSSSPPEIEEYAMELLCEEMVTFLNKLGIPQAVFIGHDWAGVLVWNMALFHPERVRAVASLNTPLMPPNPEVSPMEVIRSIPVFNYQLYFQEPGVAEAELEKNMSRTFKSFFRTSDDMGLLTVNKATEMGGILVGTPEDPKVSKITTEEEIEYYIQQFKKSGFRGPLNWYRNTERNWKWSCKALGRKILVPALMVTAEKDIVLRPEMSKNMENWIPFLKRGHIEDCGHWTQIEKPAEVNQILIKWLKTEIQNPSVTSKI
# [2] = biological target: T2, Pig sEH (Sus scrofa, UniProt Q6Q2C2); experiment: sEH inhibition, radioactive assay and liver cytosolic preparation
# T2 construct: from tissue
# T2 sequence (Q6Q2C2 1-555): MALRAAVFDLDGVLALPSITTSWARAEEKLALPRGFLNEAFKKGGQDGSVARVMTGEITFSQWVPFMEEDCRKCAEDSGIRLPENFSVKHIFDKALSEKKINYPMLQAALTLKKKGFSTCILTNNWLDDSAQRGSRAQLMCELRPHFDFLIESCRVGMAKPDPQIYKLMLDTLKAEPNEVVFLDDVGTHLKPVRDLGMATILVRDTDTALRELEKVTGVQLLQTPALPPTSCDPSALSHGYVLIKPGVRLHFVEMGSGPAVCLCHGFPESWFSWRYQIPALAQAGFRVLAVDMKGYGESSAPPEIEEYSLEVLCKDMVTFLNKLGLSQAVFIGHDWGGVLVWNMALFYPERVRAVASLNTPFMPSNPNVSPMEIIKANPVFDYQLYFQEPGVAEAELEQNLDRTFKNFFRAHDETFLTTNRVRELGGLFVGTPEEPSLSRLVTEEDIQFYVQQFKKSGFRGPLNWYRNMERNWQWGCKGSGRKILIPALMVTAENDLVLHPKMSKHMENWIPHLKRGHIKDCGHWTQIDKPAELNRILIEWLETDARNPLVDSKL
# [3] = biological target: T3, Sheep sEH (Ovis aries, UniProt A0ACI6PZ20); experiment: as above
# T3 sequence (A0ACI6PZ20 1-549): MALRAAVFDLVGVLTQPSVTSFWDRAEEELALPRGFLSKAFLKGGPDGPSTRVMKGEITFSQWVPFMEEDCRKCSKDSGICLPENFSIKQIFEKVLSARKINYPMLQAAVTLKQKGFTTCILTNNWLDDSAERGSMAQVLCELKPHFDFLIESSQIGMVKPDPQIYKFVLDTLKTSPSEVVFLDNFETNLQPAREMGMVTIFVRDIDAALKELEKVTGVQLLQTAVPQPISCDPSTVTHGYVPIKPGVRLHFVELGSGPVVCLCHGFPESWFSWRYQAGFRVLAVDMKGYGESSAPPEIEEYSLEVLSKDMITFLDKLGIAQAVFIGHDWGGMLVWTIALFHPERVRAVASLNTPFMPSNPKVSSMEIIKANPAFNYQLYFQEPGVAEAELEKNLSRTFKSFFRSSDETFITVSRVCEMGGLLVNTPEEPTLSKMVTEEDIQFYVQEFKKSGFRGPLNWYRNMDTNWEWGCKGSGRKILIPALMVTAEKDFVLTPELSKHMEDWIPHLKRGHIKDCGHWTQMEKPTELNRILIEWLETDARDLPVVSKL
smiles,measurement,setting,value
"O=C(Nc1ccc(OC(F)(F)F)cc1)N[C@H]1CC[C@H](Oc2ccc(C(=O)O)cc2)CC1 [EC1728, trans-4-{4-[3-(4-trifluoromethoxy-phenyl)-ureido]-cyclohexyloxy}-benzoic acid]",IC50,[1],16 nM
same,IC50,[2],29 nM
same,IC50,[3],6 nM
